Numbered stars: 1 amine (or outer) side, 2 acyl side, 3 side chain; on linkers, the order of the positions; unused ones are H or OH. Square brackets hold non-standard residues; d marks the D form. Side chains are listed from the residue outwards. Peptide text beside a SMILES is read from it. * marks the point of attachment. C18 diacid = O=C(O)CCCCCCCCCCCCCCCCC(=O)*; γGlu = O=C(O)[C@H](CCC(=O)[*:2])N[*:1]; PEG2 = NCCOCCOCCC(=O)O
Target: human GLP-1R (Homo sapiens, UniProt P43220)
Experiment: CRE-driven luciferase reporter
Type: cell-based

Chain of human GLP-1R (P43220 24-463): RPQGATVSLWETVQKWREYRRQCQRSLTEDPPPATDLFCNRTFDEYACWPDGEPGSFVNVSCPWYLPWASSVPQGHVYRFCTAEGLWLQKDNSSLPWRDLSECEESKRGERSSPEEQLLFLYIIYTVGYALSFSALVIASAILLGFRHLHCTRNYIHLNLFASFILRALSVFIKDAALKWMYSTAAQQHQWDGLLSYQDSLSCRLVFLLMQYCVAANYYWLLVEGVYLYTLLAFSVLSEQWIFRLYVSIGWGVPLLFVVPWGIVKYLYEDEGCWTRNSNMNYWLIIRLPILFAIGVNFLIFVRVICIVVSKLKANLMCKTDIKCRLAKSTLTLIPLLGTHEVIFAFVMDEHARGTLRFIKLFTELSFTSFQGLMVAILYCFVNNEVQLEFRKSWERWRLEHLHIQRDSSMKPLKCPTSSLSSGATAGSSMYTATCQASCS

## CC(C)C[C@H](NC(=O)[C@H](CC(C)C)NC(=O)[C@H](Cc1c[nH]c2ccccc12)NC(=O)[C@H](CCC(=O)O)NC(=O)[C@@H](NC(=O)[C@H](Cc1ccccc1)NC(=O)[C@H](CC(=O)O)NC(=O)[C@H](Cc1c[nH]cn1)NC(=O)[C@H](C)NC(=O)[C@H](C)NC(=O)[C@H](CCCCNC(=O)CCOCCOCCNC(=O)CCOCCOCCNC(=O)CC[C@H](NC(=O)CCCCCCCCCCCCCCCCC(=O)O)C(=O)O)NC(=O)[C@H](CO)NC(=O)[C@H](CC(=O)O)NC(=O)[C@H](CC(C)C)NC(=O)[C@H](Cc1ccc(O)cc1)NC(=O)[C@H](CCCCN)NC(=O)[C@H](CO)NC(=O)[C@H](Cc1ccc(O)cc1)NC(=O)[C@H](CC(=O)O)NC(=O)[C@H](CO)NC(=O)[C@@H](NC(=O)[C@H](Cc1ccccc1)NC(=O)[C@@H](NC(=O)CNC(=O)[C@H](CCC(N)=O)NC(=O)[C@@H](CO)NC(=O)[C@@H](N)Cc1c[nH]cn1)[C@@H](C)O)[C@@H](C)O)C(C)C)C(=O)N[C@@H](CCCNC(=N)N)C(=O)N[C@@H](C)C(N)=O [TA002] (H-H[dS]QGTFTSDYSKYLDSK([PEG2-PEG2-γGlu-C18 diacid])AAHDFVEWLLRA-NH2)
  EC50: 320 pM

## CC(C)C[C@H](NC(=O)[C@H](CC(C)C)NC(=O)[C@H](Cc1c[nH]c2ccccc12)NC(=O)[C@H](CCC(=O)O)NC(=O)[C@@H](NC(=O)[C@H](Cc1ccccc1)NC(=O)[C@H](CC(=O)O)NC(=O)[C@H](Cc1c[nH]cn1)NC(=O)[C@H](C)NC(=O)[C@H](C)NC(=O)[C@H](CCCCNC(=O)CCOCCOCCNC(=O)CCOCCOCCNC(=O)CC[C@H](NC(=O)CCCCCCCCCCCCCCCCC(=O)O)C(=O)O)NC(=O)[C@H](CO)NC(=O)[C@H](CC(=O)O)NC(=O)[C@H](CC(C)C)NC(=O)[C@H](Cc1ccc(O)cc1)NC(=O)[C@H](CCCCN)NC(=O)[C@H](CO)NC(=O)[C@H](Cc1ccc(O)cc1)NC(=O)[C@H](CC(=O)O)NC(=O)[C@H](CO)NC(=O)[C@@H](NC(=O)[C@H](Cc1ccccc1)NC(=O)[C@@H](NC(=O)CNC(=O)[C@H](CCC(N)=O)NC(=O)[C@@H](CO)NC(=O)[C@@H](N)Cc1c[nH]cn1)[C@@H](C)O)[C@@H](C)O)C(C)C)C(=O)N[C@@H](CC(N)=O)C(=O)NCC(=O)NCC(=O)N1CCC[C@H]1C(=O)N[C@@H](CO)C(=O)N[C@@H](CO)C(=O)NCC(=O)N[C@@H](C)C(=O)N1CCC[C@H]1C(=O)N1CCC[C@H]1C(=O)N1CCC[C@H]1C(=O)N[C@@H](CO)C(N)=O [TA004] (H-H[dS]QGTFTSDYSKYLDSK([PEG2-PEG2-γGlu-C18 diacid])AAHDFVEWLLNGGPSSGAPPPS-NH2)
  EC50: 190 pM

## CCCCCCCCCCCCCCCCCC(=O)NCCOCCOCCC(=O)NCCOCCOCCC(=O)NCCCC[C@H](NC(=O)[C@H](CC(=O)O)NC(=O)[C@H](CO)NC(=O)[C@@H](NC(=O)[C@H](Cc1ccccc1)NC(=O)[C@@H](NC(=O)CNC(=O)[C@H](CCC(N)=O)NC(=O)[C@@H](CO)NC(=O)[C@@H](N)Cc1c[nH]cn1)[C@@H](C)O)[C@@H](C)O)C(=O)N[C@@H](CO)C(=O)N[C@@H](CCCCN)C(=O)N[C@@H](Cc1ccc(OS(=O)(=O)F)cc1)C(=O)N[C@@H](CC(C)C)C(=O)N[C@@H](CC(=O)O)C(=O)NC(C)(C)C(=O)N[C@@H](CCCNC(=N)N)C(=O)N[C@@H](CCCNC(=N)N)C(=O)N[C@@H](C)C(=O)N[C@@H](CCC(N)=O)C(=O)N[C@@H](CC(=O)O)C(=O)N[C@@H](Cc1ccccc1)C(=O)N[C@H](C(=O)N[C@@H](CCC(N)=O)C(=O)N[C@@H](Cc1c[nH]c2ccccc12)C(=O)N[C@@H](CC(C)C)C(=O)N[C@@H](CCSC)C(=O)N[C@@H](CC(N)=O)C(=O)N[C@H](C(=O)NCC(=O)NCC(=O)N1CCC[C@H]1C(=O)N[C@@H](CO)C(=O)N[C@@H](CO)C(=O)NCC(=O)N[C@@H](C)C(=O)N1CCC[C@H]1C(=O)N1CCC[C@H]1C(=O)N1CCC[C@H]1C(=O)N[C@@H](CO)C(N)=O)[C@@H](C)O)C(C)C [TA006]
  EC50: 2500 pM
